Experiments:
NRAS/Ink4a mice = test: Melanoma development in NRAS/Ink4a mice; format: in vivo
Description: The NRAS/Ink4a mice harbor a Q61K NRAS activating mutation, as is seen in 15% of human melanomas, on an Ink4a-deficient background, which mimics the mutations often seen in this locus (p16) in human melanoma.
The NRAS/Ink4a mouse develops melanoma with penetrance of about 25-50% which is often accompanied by metastasis to the lymph nodes.
To examine the effect of BI-69A11 treatment on in vivo melanoma development, BI-69A11 was administered to a cohort of 30 mice twice per week (IP, 0.5 mg/kg), starting at week 28 after NRAS expression. A control group of 30 mice received the control vehicle formulation. In this model, by 28 weeks many mice already developed melanoma. Those were not included in our study which was restricted to animals that have not yet developed melanoma. Nevertheless, in a clinical setting, preventive treatment could be administered prior to tumor development, at a stage where early stages of development had been initiated.
NRAS expression was induced in NRAS/INK4a mice (time 0) and the mice were maintained for 40 weeks. Starting at 28 weeks, animals received BI-69A11 at 0.5 mg/kg by IP injection twice weekly.
NRAS expression was induced in NRAS/INK4a mice and 28 weeks later treatment with BI-69A11 was initiated. Internal tumors developed in this model were fibrosarcomas, whereas the skin tumors were melanomas (confirmed by immunostaining with S100 and DCT).
An additional experimental group included animals from the same melanoma model, albeit, those were treated earlier (after 10 weeks rather than 28).

[1] = system: UACC 903 melanoma xenografts; test: UACC 903 melanoma xenografts in nude mice; format: in vivo
Description: (A) Nude mice were subcutaneously injected with UACC 903 cells and tumors were allowed to reach an approximate size of 1 mm^3 before intraperitoneal treatment was started; treatment was performed twice per week for 3 weeks with the indicated concentrations of BI-69A11. Each of the experimental groups consisted of 10 mice that were subjected to treatment with the indicated concentration of BI-69A11. […] Tumors were measured with calipers at the indicated time points. The mice were sacrificed and tumors harvested at the end of this period were measured and weighed to determine tumor volume and mass. Blue bars represent control-vehicle treated group; yellow bars represent the 5 mg/Kg treatment group; the orange and green bars represent the 1 and 2 mg/Kg treatment groups, respectively. (B) Analysis of cell death in the tumors was performed using Tunel staining. Shown are representative pictures for control tumors (right) and a treatment group (5 mg/Kg; left). (C) Quantification of Tunel staining in the different tumor groups. Samples from each of the tumors were subjected to Tunel staining which was quantified by Aperio ImageScope and confirmed by visual inspection of representative samples. The percentage of Tunel positive cells is indicated in the graph. […]
In light of the efficient cell death elicited by BI-69A11, we assessed its activity on tumor growth in mouse xenografts. […]
For the tumor studies, UACC 903 cells […] were injected subcutaneously and tumor size was monitored using calipers twice per week. […] At the end of the study, tumors were harvested, weighed and measured.
For the tunel assay and quantitative analysis, the detection of nuclei with fragmented DNA by terminal deoxyribonucleotidyl transferase-mediated dUTP nick end labeling (TUNEL) was accomplished using the ApopTag Peroxidase In situ Apoptosis Detection Kit (Chemicon, Temecula, Calif., US) according to the instructions of the manufacturer. […]

[2] = IP 0.5 mg/kg twice per week from week 28
[3] = 0.5-2.0 mg/kg intra-peritoneally twice per week, 3 weeks

SMILES: O=C(/C=C/c1nc2ccccc2[nH]1)c1c(O)nc2ccc(Cl)cc2c1-c1ccccc1 [Compound 2, (E)-3-(3-(1H-benzo[d]imidazol-2-yl)acryloyl)-6-chloro-4-phenylquinolin-2(1H)-one]
- inhibition in the fibrosarcoma group (NRAS/Ink4a mice; [2]): ~50%
- inhibition of melanomas (NRAS/Ink4a mice; [2]): ~68%
- share of the 25 melanomas that developed in the treated group (NRAS/Ink4a mice; [2]): 32%
- total number of tumors developed (NRAS/Ink4a mice; IP 0.5 mg/kg twice per week from week 28, up to 40 weeks, 30 tumors in control group): 19
- number of melanomas (NRAS/Ink4a mice; IP 0.5 mg/kg twice per week from week 28, control 17): 8
- prevention with administration after 10 weeks compared with after 28 weeks (NRAS/Ink4a mice; mouse, in vivo): as effective as
- growth of the melanoma tumors [1, 3]: effectively inhibits further growth
- regression of the tumors [1, 3]: efficient regression
- apoptosis in tumors by Tunel staining, compared with control tumors ([1]; treatment groups 0.5-2.0 mg/kg): higher degrees of apoptosis
